Measurements as given in PMC4585259 (Frontiers in Pharmacology, 2015).
pKd: −log10 of the molar value. Read-outs that look alike come from different tables or passages of the source.

Molecular target: T1, rNav1.2 sodium channels (Rattus norvegicus, UniProt P04775)
T1 construct: host or cells: HEK-293
Assay: QPatch automated patch clamp, inhibition of sodium currents evoked by 5 Hz trains at three extracellular pH values
Assay type: cell-based
Details: for class of pH-dependence pattern (cluster analysis): Ward's method on 18 variables of affinity, reversibility, onset; for τoffset / τonset: concentration (lidocaine 300 μM, memantine 30 μM); for inhibition: 100 μM
Method: HEK-293 cells stably expressing rNav1.2 sodium channels were obtained from NeuroSearch (Ballerup, Denmark). The cells were grown in Dulbecco's modified Eagle medium supplemented with 10% FBS. Prior to use, the cells were trypsinized and subsequently kept in suspension in the QPatch cell storage facility in CHO-S- SFM-II medium.
Composition of the extracellular solution was: (in mM): 140 NaCl, 3 KCl, 1 CaCl2 1 MgCl2, 0.1 CdCl2, 20 TEA-Cl, 5 HEPES, adjusted to pH 7.3, Osmolality: 320 mOsm. […] Drugs were synthesized in Gedeon Richter Plc. […] The full list of drugs, with their three-letter codes, concentration, as well as their main therapeutic indication and main mechanism of action are shown in Table 1. […] The choice of concentrations used in this study may seem unusually high.
Data were sampled at a frequency of 25 kHz and filtered at 5 kHz. Junction potential was calculated to be −11 mV and was corrected for. […] Cells having membrane resistance < 500 MOhm, series resistance > 9 MOhm, or capacitance > 22 pF were excluded from analysis. The experimental protocol was also identical to the one used in our previous study: sodium channels were activated by 5 Hz trains of 5 depolarizations (−90 to −10 mV) repeated in every 20 s. In this study, however, the same control–drug-application–washout sequence was repeated four times: at neutral, acidic, alkalic, and again neutral pH. The peak amplitudes of sodium currents throughout the whole experiment are shown plotted against time in Figure 1 and Supplementary Figure 1.
Initial analysis, including subtraction of leak and capacitive artifacts, as well as peak detection were done in the QPatch software. […] All experiments were normalized to the amplitude of the current evoked by the first depolarization of the last train under control conditions. […] For all four drug applications in an experiment, apparent affinity, onset and offset time constants as well as reversibility values were calculated. […] (This method is equivalent to applying the Lineweaver-Burk plot method using a single concentration.) Reversibility values were calculated from control (c), inhibited (i), and wash-out (w) amplitudes as follows: Reversibility = (w-i)/(c-i). Reversibility values should not be regarded as experimental platform-independent properties of compounds. […] However, reversibility values are a valuable source of information regarding physicochemical differences between individual drugs, or between effects of the same drug under different extracellular pH conditions. Onset and offset time constants were determined by single exponential fitting to individual experiments. For neutral pH numerical data were given as the average of the data from the first and the last drug applications. Thin black lines on Figure 1 and Supplemental Figure 1 show the average of five fitted exponentials, (not the exponential fitted to the averaged normalized amplitudes). The numerical values of apparent affinity, onset and offset time constants and reversibility are shown in Table 2, and their relative position is illustrated in Figure 2. Affinity and time constant values were logarithmically transformed for statistics, therefore we show their geometric mean. For recovery data no transformation was done, and we show arithmetic mean values. Significance values were calculated using paired, two-tailed Student's t-test based on five pairs of apparent affinity (log transform), time constant (log transform), or reversibility values obtained from five individual experiments. Because of the large number of comparisons in this study, we accepted p < 0.01 as significant. Cluster analysis was done using Ward's minimum variance method, with Euclidean distance measure. Data were normalized by subtracting the mean (after logarithmic transformation in the case of apparent affinity and time constants), and dividing by the standard deviation.

[1] = pH 6.0, single concentration (lidocaine 300 μM, memantine 30 μM), geometric mean of 5, read-out: apparent affinity
[2] = pH 7.3, single concentration (lidocaine 300 μM, memantine 30 μM), geometric mean of 5, read-out: apparent affinity
[3] = pH 8.6, single concentration (lidocaine 300 μM, memantine 30 μM), geometric mean of 5, read-out: apparent affinity
[4] = pH=6.0, cc 100 mM, read-out: Apparent Affinity
[5] = pH=7.3, cc 100 mM, read-out: Apparent Affinity
[6] = pH=8.6, cc 100 mM, read-out: Apparent Affinity

T1 sequence (P04775 whole entry): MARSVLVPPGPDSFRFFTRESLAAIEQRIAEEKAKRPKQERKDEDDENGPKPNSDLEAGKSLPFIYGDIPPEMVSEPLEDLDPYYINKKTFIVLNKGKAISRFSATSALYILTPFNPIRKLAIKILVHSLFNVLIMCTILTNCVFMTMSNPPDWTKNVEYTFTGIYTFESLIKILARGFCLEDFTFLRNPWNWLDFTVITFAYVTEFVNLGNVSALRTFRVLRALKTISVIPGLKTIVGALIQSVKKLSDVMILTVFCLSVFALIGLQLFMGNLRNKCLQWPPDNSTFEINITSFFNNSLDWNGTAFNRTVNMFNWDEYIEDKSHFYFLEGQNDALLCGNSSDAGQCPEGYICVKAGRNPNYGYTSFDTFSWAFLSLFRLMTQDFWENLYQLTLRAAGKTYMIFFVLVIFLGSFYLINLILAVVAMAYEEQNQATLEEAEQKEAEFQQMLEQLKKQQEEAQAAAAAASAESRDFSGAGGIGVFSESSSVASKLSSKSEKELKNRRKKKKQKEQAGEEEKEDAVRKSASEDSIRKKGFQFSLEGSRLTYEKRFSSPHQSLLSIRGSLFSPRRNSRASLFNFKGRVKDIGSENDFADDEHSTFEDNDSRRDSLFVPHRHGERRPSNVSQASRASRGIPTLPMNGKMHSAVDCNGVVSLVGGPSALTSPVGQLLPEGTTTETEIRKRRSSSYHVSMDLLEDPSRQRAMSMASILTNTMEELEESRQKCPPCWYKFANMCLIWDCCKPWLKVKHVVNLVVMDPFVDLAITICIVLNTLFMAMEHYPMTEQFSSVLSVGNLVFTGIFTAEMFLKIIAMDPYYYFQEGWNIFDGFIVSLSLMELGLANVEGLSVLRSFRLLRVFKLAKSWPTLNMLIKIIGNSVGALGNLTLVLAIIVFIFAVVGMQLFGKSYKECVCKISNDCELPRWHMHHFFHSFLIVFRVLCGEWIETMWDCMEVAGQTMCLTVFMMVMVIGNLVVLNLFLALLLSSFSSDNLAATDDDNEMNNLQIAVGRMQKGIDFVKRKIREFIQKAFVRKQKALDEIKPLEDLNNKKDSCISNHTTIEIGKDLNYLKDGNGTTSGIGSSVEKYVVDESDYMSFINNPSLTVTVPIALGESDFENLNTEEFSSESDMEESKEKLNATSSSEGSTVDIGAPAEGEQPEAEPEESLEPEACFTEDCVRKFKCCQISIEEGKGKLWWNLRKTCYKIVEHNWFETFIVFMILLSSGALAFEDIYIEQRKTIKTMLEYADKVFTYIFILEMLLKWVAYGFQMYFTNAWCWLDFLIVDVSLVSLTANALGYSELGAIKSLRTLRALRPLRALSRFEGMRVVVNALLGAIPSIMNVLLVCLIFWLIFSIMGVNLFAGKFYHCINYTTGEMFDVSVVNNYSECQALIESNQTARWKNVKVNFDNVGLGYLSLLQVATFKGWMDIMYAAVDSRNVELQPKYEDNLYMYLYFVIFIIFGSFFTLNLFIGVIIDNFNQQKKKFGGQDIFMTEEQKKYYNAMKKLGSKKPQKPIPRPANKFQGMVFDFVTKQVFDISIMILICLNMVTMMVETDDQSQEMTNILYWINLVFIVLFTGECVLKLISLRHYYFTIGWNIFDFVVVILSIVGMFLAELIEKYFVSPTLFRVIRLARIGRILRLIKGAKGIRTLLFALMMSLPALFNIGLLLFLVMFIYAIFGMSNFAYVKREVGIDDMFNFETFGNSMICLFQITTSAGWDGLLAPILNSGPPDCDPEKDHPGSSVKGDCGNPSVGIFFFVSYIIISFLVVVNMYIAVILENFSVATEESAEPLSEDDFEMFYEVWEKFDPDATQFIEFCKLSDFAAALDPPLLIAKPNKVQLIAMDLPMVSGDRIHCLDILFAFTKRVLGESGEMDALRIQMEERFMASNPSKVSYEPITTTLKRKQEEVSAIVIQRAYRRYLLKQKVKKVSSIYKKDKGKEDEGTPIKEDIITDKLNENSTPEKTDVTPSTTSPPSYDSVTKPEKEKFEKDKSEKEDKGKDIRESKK

SMILES | class of pH-dependence pattern (cluster analysis) | τoffset (pH 6.0) [s] | τonset (pH 6.0) [s] | τoffset (pH 7.3) [s] | τonset (pH 7.3) [s] | τoffset (pH 8.6) [s] | τonset (pH 8.6) [s] | pKd [1] | pKd [2] | pKd [3] | Reversibility (pH=6.0, cc 30 mM) | Reversibility (pH=7.3, cc 30 mM) | Reversibility (pH=8.6, cc 30 mM) | Ratio Reversibility (pH 6.0/7.3, cc 100 mM) | Ratio Tau Offset (pH 6.0/7.3, cc 100 mM) | Ratio Tau Onset (pH 6.0/7.3, cc 100 mM) | log Ratio App Aff (pH 6.0/7.3, cc 100 mM) | Ratio Reversibility (pH 6.0/8.6, cc 100 mM) | Ratio Tau Offset (pH 6.0/8.6, cc 100 mM) | Ratio Tau Onset (pH 6.0/8.6, cc 100 mM) | other results
Nc1nc2ccc(OC(F)(F)F)cc2s1 [riluzole] | Class G | 23.60 | 9.20 | 21.40 | 9.60 | 23.40 | 10.40 |  |  |  | 0.45 | 0.73 | 0.45 |  |  |  |  |  |  |  | 
C[Si](C)(Cc1ccc(F)cc1)CN1CCCCC1 [silperisone] | Class F | 18.60 | 9.00 | 15.00 | 10.00 | 20.80 | 7.80 | 3.48 | 3.86 | 4.57 |  |  |  | 0.877 | 1.240 | 0.900 | 0.387 | 1.714 | 0.894 | 1.154 | inhibition (pH 6.0): 23%; inhibition (pH 7.3): 42%; inhibition (pH 8.6): 79%; log Ratio App Aff (pH 6.0/8.6, cc 100 mM): 1.096; Ratio Reversibility (pH 7.3/8.6, cc 100 mM): 1.955; Ratio Tau Offset (pH 7.3/8.6, cc 100 mM): 0.721; Ratio Tau Onset (pH 7.3/8.6, cc 100 mM): 1.282; log Ratio App Aff (pH 7.3/8.6, cc 100 mM): 0.709; Reversibility (pH=6.0, cc 100 mM): 0.80; pKd [4]: 3.48; Reversibility (pH=7.3, cc 100 mM): 0.92; pKd [5]: 3.86; Reversibility (pH=8.6, cc 100 mM): 0.47; pKd [6]: 4.57
O=C1NC(=O)C(c2ccccc2)(c2ccccc2)N1 [phenytoin] | Class A | 21.26 | 13.00 | 17.32 | 13.20 | 21.40 | 20.00 | 3.08 | 3.11 | 3.19 |  |  |  |  |  |  |  |  |  |  | Ratio Reversibility (pH 6.0/7.3, cc 300 mM): 1.014; Ratio Tau Offset (pH 6.0/7.3, cc 300 mM): 1.227; Ratio Tau Onset (pH 6.0/7.3, cc 300 mM): 0.985; log Ratio App Aff (pH 6.0/7.3, cc 300 mM): 0.026; Ratio Reversibility (pH 6.0/8.6, cc 300 mM): 1.313; Ratio Tau Offset (pH 6.0/8.6, cc 300 mM): 0.993; Ratio Tau Onset (pH 6.0/8.6, cc 300 mM): 0.650; log Ratio App Aff (pH 6.0/8.6, cc 300 mM): 0.109; Ratio Reversibility (pH 7.3/8.6, cc 300 mM): 1.295; Ratio Tau Offset (pH 7.3/8.6, cc 300 mM): 0.809; Ratio Tau Onset (pH 7.3/8.6, cc 300 mM): 0.660; log Ratio App Aff (pH 7.3/8.6, cc 300 mM): 0.083; Reversibility (pH=6.0, cc 300 mM): 0.83; pKd (pH=6.0, cc 300 mM, read-out: Apparent Affinity): 3.08; Reversibility (pH=7.3, cc 300 mM): 0.82; pKd (pH=7.3, cc 300 mM, read-out: Apparent Affinity): 3.11; Reversibility (pH=8.6, cc 300 mM): 0.63; pKd (pH=8.6, cc 300 mM, read-out: Apparent Affinity): 3.19
Cc1ccc(C(=O)C(C)CN2CCCCC2)cc1 (stereo not shown) [tolperisone] | Class F | 16.20 | 7.40 | 12.90 | 7.20 | 12.60 | 5.20 | 3.43 | 3.56 | 3.97 |  |  |  | 0.699 | 1.256 | 1.028 | 0.132 | 0.944 | 1.286 | 1.423 | decrease of recovery at pH = 8.6 as compared to pH = 7.3: 1.35 fold; log Ratio App Aff (pH 6.0/8.6, cc 100 mM): 0.542; Ratio Reversibility (pH 7.3/8.6, cc 100 mM): 1.349; Ratio Tau Offset (pH 7.3/8.6, cc 100 mM): 1.024; Ratio Tau Onset (pH 7.3/8.6, cc 100 mM): 1.385; log Ratio App Aff (pH 7.3/8.6, cc 100 mM): 0.410; KD app, effect of acidic medium (pH = 6.0 vs neutral, increased KD app = decreased apparent affinity): MEM,MEX,TOL↑; Reversibility (pH=6.0, cc 100 mM): 0.65; pKd [4]: 3.43; Reversibility (pH=7.3, cc 100 mM): 0.93; pKd [5]: 3.56; Reversibility (pH=8.6, cc 100 mM): 0.69; pKd [6]: 3.97

Now from value to compound, other results behind:

class of pH-dependence pattern (cluster analysis) | τoffset (pH 6.0) [s] | τonset (pH 6.0) [s] | τoffset (pH 7.3) [s] | τonset (pH 7.3) [s] | τoffset (pH 8.6) [s] | τonset (pH 8.6) [s] | pKd [1] | pKd [2] | pKd [3] | SMILES | Reversibility (pH=6.0, cc 30 mM) | Reversibility (pH=7.3, cc 30 mM) | Reversibility (pH=8.6, cc 30 mM) | Ratio Reversibility (pH 6.0/7.3, cc 100 mM) | Ratio Tau Offset (pH 6.0/7.3, cc 100 mM) | Ratio Tau Onset (pH 6.0/7.3, cc 100 mM) | log Ratio App Aff (pH 6.0/7.3, cc 100 mM) | Ratio Reversibility (pH 6.0/8.6, cc 100 mM) | Ratio Tau Offset (pH 6.0/8.6, cc 100 mM) | Ratio Tau Onset (pH 6.0/8.6, cc 100 mM) | other results
Class D | 14.40 | 12.20 | 13.00 | 8.80 | 15.00 | 10.40 | 3.50 | 3.85 | 4.42 | CN1CCN2c3ncccc3Cc3ccccc3C2C1 (stereo not shown) [mirtazapine] |  |  |  | 0.272 | 1.108 | 1.386 | 0.353 | 0.495 | 0.960 | 1.173 | log Ratio App Aff (pH 6.0/8.6, cc 100 mM): 0.925; Ratio Reversibility (pH 7.3/8.6, cc 100 mM): 1.821; Ratio Tau Offset (pH 7.3/8.6, cc 100 mM): 0.867; Ratio Tau Onset (pH 7.3/8.6, cc 100 mM): 0.846; log Ratio App Aff (pH 7.3/8.6, cc 100 mM): 0.572; effect of acidic pH on recovery (pH = 6.0 vs 7.3, in words): decreased recovery; Reversibility (pH=6.0, cc 100 mM): 0.26; pKd [4]: 3.50; Reversibility (pH=7.3, cc 100 mM): 0.95; pKd [5]: 3.85; Reversibility (pH=8.6, cc 100 mM): 0.52; pKd [6]: 4.42
Class E | 17.60 | 11.80 | 20.40 | 18.00 | 38.60 | 30.00 | 4.51 | 5.05 | 4.28 | Cc1nc2sccn2c(=O)c1CCN1CCC(=C(c2ccc(F)cc2)c2ccc(F)cc2)CC1 [ritanserin] | 0.36 | 0.37 | 0.08 |  |  |  |  |  |  |  | fold more potent at neutral pH than at pH = 6.0 (30 μM): 3.5 fold; fold more potent at neutral pH than at pH = 8.6 (30 μM): 5.9 fold; effect of alkalic pH on onset/offset kinetics (in words): decelerated onset; alkalization-induced recovery (neutral-to-alkalic solution exchange, in words): prominent alkalization-induced recovery; reversibility at all three pH values (pH 6.0, 7.3 and 8.6): below 0.6; Ratio Reversibility (pH 6.0/7.3, cc 30 mM): 0.981; Ratio Tau Offset (pH 6.0/7.3, cc 30 mM): 0.863; Ratio Tau Onset (pH 6.0/7.3, cc 30 mM): 0.656; log Ratio App Aff (pH 6.0/7.3, cc 30 mM): 0.541; Ratio Reversibility (pH 6.0/8.6, cc 30 mM): 4.330; Ratio Tau Offset (pH 6.0/8.6, cc 30 mM): 0.456; Ratio Tau Onset (pH 6.0/8.6, cc 30 mM): 0.393; log Ratio App Aff (pH 6.0/8.6, cc 30 mM): -0.230; Ratio Reversibility (pH 7.3/8.6, cc 30 mM): 4.412; Ratio Tau Offset (pH 7.3/8.6, cc 30 mM): 0.528; Ratio Tau Onset (pH 7.3/8.6, cc 30 mM): 0.600; log Ratio App Aff (pH 7.3/8.6, cc 30 mM): -0.772; pKd (pH=6.0, cc 30 mM, read-out: Apparent Affinity): 4.51; pKd (pH=7.3, cc 30 mM, read-out: Apparent Affinity): 5.05; pKd (pH=8.6, cc 30 mM, read-out: Apparent Affinity): 4.28
Class C | 56.80 | 65.77 | 57.40 | 44.40 | 59.00 | 26.92 |  |  |  | CNCCCN1c2ccccc2CCc2ccccc21 [desipramine] | 0.64 | 0.42 | 0.11 |  |  |  |  |  |  |  | effect of alkalic pH on onset/offset kinetics (in words): acceleration of onset
